The values that follow come from ChEMBL document CHEMBL2417474, “Synthesis, antiproliferative and anti-inflammatory activities of some novel 6-aryl-2-(p-(methanesulfonyl)phenyl)-4,5-dihydropyridazi-3(2H)-ones” (Eur J Med Chem, 2013).

Molecules are shown by their SMILES.

Type in all cases: functional
The test system of one assay is NCI-H460. Briefly: Growth inhibition of human NCI-H460 cells assessed as cell growth at 10 uM after 48 hrs by sulforhodamine B assay. The settings on record: NCI-H460, 48 h, read-out: Activity.
Another assay has as its system HCT-15. Briefly: Growth inhibition of human HCT15 cells assessed as cell growth at 10 uM after 48 hrs by sulforhodamine B assay. Particulars: HCT-15, 48 h, read-out: Activity.
Assay [1] can be described thus: Growth inhibition of human EKVX cells assessed as cell growth at 10 uM after 48 hrs by sulforhodamine B assay. Particulars: read-out: Activity. Background: Sulforhodamine B stains cellular protein and so reports cell mass.
A further assay deals with SF-295. Briefly: Growth inhibition of human SF295 cells assessed as cell growth at 10 uM after 48 hrs by sulforhodamine B assay. The settings on record: SF-295, 48 h, read-out: Activity.

In the case of `Cc1cc(O)ccc1C1=NN(c2ccc(S(C)(=O)=O)cc2)C(=O)CC1`, the growth at 10 µM in the assay with NCI-H460 is 73.1%; with HCT-15, 44.9%; in assay [1], 72.2%; in the assay with SF-295, 32.1%.
Regarding `CCc1ccc(C2=NN(c3ccc(S(C)(=O)=O)cc3)C(=O)CC2)cc1`, the growth at 10 µM in the assay with NCI-H460 is 10.6%; in the assay on HCT-15, 22.1%; in assay [1], 60.4%; in the assay on SF-295 it was 9.24%.
